Reference: article doi:10.1101/2025.01.28.635346v1 (bioRxiv, 2025)
Bridge positions count the residues as written; N and C are the ends. Side chains are listed from the residue outwards. Peptide text beside a SMILES is read from it. * marks the point of attachment. Butanoyl(4-(4-I-phenyl)) = O=C(CCCc1ccc(I)cc1)*; PEG2 = NCCOCCOCCC(=O)O

Columns and labels:
integrin α5β1 = integrin α5β1 (Homo sapiens, UniProt P05556+P08648); test: ELISA competition assay, integrin α5β1; type: binding
HRH1 = HRH1 (Homo sapiens, UniProt P35367); test: Safetyscan47 GPCR Calcium Flux, Agonist; type: cell-based; details: for Emax: read-out: Max Response
HTR2A = HTR2A (Homo sapiens, UniProt P28223); test: Safetyscan47 GPCR Calcium Flux, Agonist; type: cell-based; details: for Emax: read-out: Max Response
AVPR1A = AVPR1A (Homo sapiens, UniProt P37288); test: Safetyscan47 GPCR Calcium Flux, Antagonist; type: cell-based; details: for Emax: read-out: Max Response
CCKAR = biological target: T1, CCKAR (Homo sapiens, UniProt P32238); test: Safetyscan47 GPCR Calcium Flux, Antagonist; type: cell-based; details: for Emax: read-out: Max Response
T1 sequence (P32238 1-428): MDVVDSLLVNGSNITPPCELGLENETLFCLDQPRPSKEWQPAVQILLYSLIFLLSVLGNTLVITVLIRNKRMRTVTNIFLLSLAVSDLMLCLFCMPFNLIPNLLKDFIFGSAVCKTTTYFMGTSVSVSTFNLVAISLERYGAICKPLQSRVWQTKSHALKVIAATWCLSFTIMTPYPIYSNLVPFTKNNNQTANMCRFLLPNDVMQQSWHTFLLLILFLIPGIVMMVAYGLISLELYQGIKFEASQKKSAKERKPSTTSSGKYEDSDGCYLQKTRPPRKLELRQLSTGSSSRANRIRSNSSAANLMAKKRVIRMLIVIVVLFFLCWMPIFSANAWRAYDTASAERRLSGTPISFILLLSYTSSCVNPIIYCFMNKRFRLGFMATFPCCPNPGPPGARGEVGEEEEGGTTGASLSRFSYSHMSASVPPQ

HTR1A [1] = biological target: T2, HTR1A (Homo sapiens, UniProt P08908); test: Safetyscan47 GPCR cAMP, Agonist; type: cell-based; details: for Emax: read-out: Max Response
T2 sequence (P08908 1-422): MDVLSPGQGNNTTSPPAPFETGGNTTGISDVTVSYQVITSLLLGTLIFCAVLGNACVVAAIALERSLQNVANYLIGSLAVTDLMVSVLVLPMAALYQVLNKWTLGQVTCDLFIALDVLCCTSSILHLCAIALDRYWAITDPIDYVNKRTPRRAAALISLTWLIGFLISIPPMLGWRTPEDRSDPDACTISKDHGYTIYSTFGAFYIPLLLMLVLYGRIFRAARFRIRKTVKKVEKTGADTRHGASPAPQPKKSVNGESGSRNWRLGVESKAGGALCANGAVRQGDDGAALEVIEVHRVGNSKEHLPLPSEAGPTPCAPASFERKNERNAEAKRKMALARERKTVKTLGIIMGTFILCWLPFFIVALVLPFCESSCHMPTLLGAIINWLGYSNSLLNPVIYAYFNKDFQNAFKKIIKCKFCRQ

ADRA2A = biological target: T3, ADRA2A (Homo sapiens, UniProt P08913); test: Safetyscan47 GPCR cAMP, Antagonist; type: cell-based; details: for Emax: read-out: Max Response
T3 sequence (P08913 1-465): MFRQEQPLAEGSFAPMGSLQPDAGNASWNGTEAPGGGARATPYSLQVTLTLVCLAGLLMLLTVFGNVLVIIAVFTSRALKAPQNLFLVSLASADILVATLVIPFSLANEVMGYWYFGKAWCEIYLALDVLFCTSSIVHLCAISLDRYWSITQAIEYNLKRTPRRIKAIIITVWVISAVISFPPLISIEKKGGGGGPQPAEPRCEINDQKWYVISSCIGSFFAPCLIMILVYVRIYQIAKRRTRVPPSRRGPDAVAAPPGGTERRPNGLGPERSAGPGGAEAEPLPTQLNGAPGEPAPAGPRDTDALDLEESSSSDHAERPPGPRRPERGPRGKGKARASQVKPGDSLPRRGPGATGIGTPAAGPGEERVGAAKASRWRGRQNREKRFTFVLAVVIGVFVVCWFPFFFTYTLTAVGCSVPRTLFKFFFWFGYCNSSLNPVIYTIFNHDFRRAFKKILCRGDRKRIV

HRH2 = HRH2 (Homo sapiens, UniProt P25021); test: Safetyscan47 GPCR cAMP, Antagonist; type: cell-based; details: for Emax: read-out: Max Response
HTR1A [2] = biological target: T2, HTR1A; test: Safetyscan47 GPCR cAMP, Antagonist; type: cell-based; details: for Emax: read-out: Max Response
HTR3A = biological target: T4, HTR3A (Homo sapiens, UniProt P46098); test: Safetyscan47 Ion Channel, Opener; type: cell-based; details: for Emax: read-out: Max Response
T4 sequence (P46098 24-478): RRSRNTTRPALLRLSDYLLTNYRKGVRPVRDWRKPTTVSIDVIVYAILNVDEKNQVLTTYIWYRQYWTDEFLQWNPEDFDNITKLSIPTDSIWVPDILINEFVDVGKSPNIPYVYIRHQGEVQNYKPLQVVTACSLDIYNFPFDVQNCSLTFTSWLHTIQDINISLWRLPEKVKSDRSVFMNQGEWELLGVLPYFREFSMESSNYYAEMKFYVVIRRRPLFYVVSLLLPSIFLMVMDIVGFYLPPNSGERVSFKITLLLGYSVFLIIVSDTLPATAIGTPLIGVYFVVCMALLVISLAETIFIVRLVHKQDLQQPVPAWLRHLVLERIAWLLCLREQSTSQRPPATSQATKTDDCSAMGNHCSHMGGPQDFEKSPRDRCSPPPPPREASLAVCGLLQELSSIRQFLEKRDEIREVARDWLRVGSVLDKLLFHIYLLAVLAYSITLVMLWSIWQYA

KvLQT1/minK = KvLQT1/minK (Homo sapiens, UniProt P15382+P51787); test: Safetyscan47 Ion Channel, Opener; type: cell-based; details: for Emax: read-out: Max Response
LCK = LCK (Homo sapiens, UniProt P06239); test: Safetyscan47 Kinases Binding, Inhibitor; details: for Emax: read-out: Max Response
PDE3A = PDE3A (Homo sapiens, UniProt Q14432); test: Safetyscan47 Non-Kinase Enzymes Enzymatic, Inhibitor; type: biochemical; details: for Emax: read-out: Max Response

Row | Compound | IC50 (integrin α5β1) [µM] | EC50 (HRH1) [µM] | Emax (HRH1) [%] | EC50 (HTR2A) [µM] | Emax (HTR2A) [%] | IC50 (AVPR1A) [µM] | Emax (AVPR1A) [%] | IC50 (CCKAR) [µM] | Emax (CCKAR) [%] | EC50 (HTR1A [1]) [µM] | Emax (HTR1A [1]) [%] | IC50 (ADRA2A) [µM] | Emax (ADRA2A) [%] | IC50 (HRH2) [µM] | Emax (HRH2) [%] | IC50 (HTR1A [2]) [µM] | Emax (HTR1A [2]) [%] | EC50 (HTR3A) [µM] | Emax (HTR3A) [%] | EC50 (KvLQT1/minK) [µM] | further results
1 | CC[C@H](C)[C@H](NC(=O)[C@H](CC(C)C)NC(=O)[C@H](CC(=O)O)NC(=O)CNC(=O)[C@H](CCCNC(=N)N)NC(=O)[C@@H](NC(=O)[C@H](Cc1ccccc1)NC(=O)[C@H](Cc1ccc(O)cc1)NC(=O)[C@@H]1CCC(=O)NCC(=O)NCC(=O)N[C@@H](CCCNC(=N)N)C(=O)NCC(=O)N[C@@H](Cc2c[nH]cn2)C(=O)N[C@@H](C(C)C)C(=O)N2CCC[C@H]2C(=O)N1)C(C)C)C(=O)N[C@@H](CO)C(=O)N[C@@H](Cc1ccccc1)C(=O)N[C@@H](Cc1ccc(O)cc1)C(=O)N[C@@H](CCCCN)C(=O)O [lassotide 36] (GGRGHVPEYFVRGDLISFYK-OH; lactam N-8) | 2.35 | > 45 | 2.03 | > 45 | 1.7 | > 45 | 13.3 | > 45 | 3.61 | > 45 | 0 | > 45 | 0 | > 45 | 2.58 | > 45 | 0 | > 45 | 0 | > 45 | Emax (KvLQT1/minK): 0%; IC50 (LCK): > 45 µM; Emax (LCK): 0%; IC50 (PDE3A): > 45 µM; Emax (PDE3A): 0%
2 | CC[C@H](C)[C@H](NC(=O)[C@H](CC(C)C)NC(=O)[C@H](CC(=O)O)NC(=O)CNC(=O)[C@H](CCCNC(=N)N)NC(=O)[C@@H](NC(=O)[C@H](Cc1ccccc1)NC(=O)[C@H](Cc1ccc(O)cc1)NC(=O)[C@@H]1CCC(=O)NCC(=O)NCC(=O)N[C@@H](CCCNC(=N)N)C(=O)NCC(=O)N[C@@H](Cc2c[nH]cn2)C(=O)N[C@@H](C(C)C)C(=O)N2CCC[C@H]2C(=O)N1)C(C)C)C(=O)N[C@@H](CO)C(=O)N[C@@H](Cc1ccccc1)C(=O)N[C@@H](Cc1ccc(O)cc1)C(=O)N[C@@H](CCCCNC(=O)CCOCCOCCNC(=O)CCCc1ccc(I)cc1)C(=O)O [lassotide 47] (GGRGHVPEYFVRGDLISFYK([PEG2-Butanoyl(4-(4-I-phenyl))])-OH; lactam N-8) | 5.02 | > 45 | 0 | > 45 | 3.54 | > 45 | 25.8 | > 45 | 3.35 | > 45 | 30.1 | > 45 | 0 | > 45 | 30 | > 45 | 0 | > 45 | 0.79 | > 45 | Emax (KvLQT1/minK): 0%; IC50 (LCK): > 45 µM; Emax (LCK): 0%; IC50 (PDE3A): > 45 µM; Emax (PDE3A): 0.63%
